Data taken from ChEMBL document CHEMBL3751764, “Synthesis and in vitro antiproliferative activity of novel pyrazolo[3,4-d]pyrimidine derivatives” (Medchemcomm, 2015).
The source made the active and inactive calls. The rule behind the calls is not given here.

Experiments:
NCI-H23 = assay: Cytotoxicity against human NCI-H23 cells assessed as cell growth at 10 uM after 72 hrs by SRB assay relative to control; type: functional; settings: NCI-H23, 72 h, read-out: Activity
NCI-H322M = assay: Cytotoxicity against human NCI-H322M cells assessed as cell growth at 10 uM after 72 hrs by SRB assay relative to control; type: functional; settings: read-out: Activity
HT-29 = assay: Cytotoxicity against human HT-29 cells assessed as cell growth at 10 uM after 72 hrs by SRB assay relative to control; type: functional; settings: HT-29, 72 h, read-out: Activity
[1] = Cytotoxicity against human SF295 cells assessed as cell growth at 10 uM after 72 hrs by SRB assay relative to control; type: functional; settings: SF-295, 72 h, read-out: Activity
[2] = Cytotoxicity against human SF539 cells assessed as cell growth at 10 uM after 72 hrs by SRB assay relative to control; type: functional; settings: SF-539, 72 h, read-out: Activity
M14 = assay: Cytotoxicity against human M14 cells assessed as cell growth at 10 uM after 72 hrs by SRB assay relative to control; type: functional; settings: M14, 72 h, read-out: Activity
MDA-MB-435 [3] = assay: Cytotoxicity against human MDA-MB-435 cells assessed as cell growth at 10 uM after 72 hrs by SRB assay relative to control; type: functional; settings: MDA-MB-435, 72 h, read-out: Activity
SK-MEL-2 = assay: Cytotoxicity against human SK-MEL-2 cells assessed as cell growth at 10 uM after 72 hrs by SRB assay relative to control; type: functional; settings: SK-MEL-2, 72 h, read-out: Activity
SK-MEL-28 = assay: Cytotoxicity against human SK-MEL-28 cells assessed as cell growth at 10 uM after 72 hrs by SRB assay relative to control; type: functional; settings: SK-MEL-28, 72 h, read-out: Activity
[4] = Cytotoxicity against human UACC257 cells assessed as cell growth at 10 uM after 72 hrs by SRB assay relative to control; type: functional; settings: UACC-257, 72 h, read-out: Activity
[5] = Cytotoxicity against human UACC62 cells assessed as cell growth at 10 uM after 72 hrs by SRB assay relative to control; type: functional; settings: UACC-62, 72 h, read-out: Activity
[6] = Cytotoxicity against human OVCAR4 cells assessed as cell growth at 10 uM after 72 hrs by SRB assay relative to control; type: functional; settings: OVCAR-4, 72 h, read-out: Activity
[7] = Cytotoxicity against human OVCAR8 cells assessed as cell growth at 10 uM after 72 hrs by SRB assay relative to control; type: functional; settings: OVCAR-8, 72 h, read-out: Activity
[8] = Cytotoxicity against human SKOV3 cells assessed as cell growth at 10 uM after 72 hrs by SRB assay relative to control; type: functional; settings: SK-OV-3, 72 h, read-out: Activity
786-0 = assay: Cytotoxicity against human 786-0 cells assessed as cell growth at 10 uM after 72 hrs by SRB assay relative to control; type: functional; settings: 786-0, 72 h, read-out: Activity
SN12C = assay: Cytotoxicity against human SN12C cells assessed as cell growth at 10 uM after 72 hrs by SRB assay relative to control; type: functional; settings: read-out: Activity
[9] = Cytotoxicity against human UO31 cells assessed as cell growth at 10 uM after 72 hrs by SRB assay relative to control; type: functional; settings: UO-31, 72 h, read-out: Activity
[10] = Cytotoxicity against human PC3 cells assessed as cell growth at 10 uM after 72 hrs by SRB assay relative to control; type: functional; settings: PC-3, 72 h, read-out: Activity
MCF7 [11] = assay: Cytotoxicity against human MCF7 cells assessed as cell growth at 10 uM after 72 hrs by SRB assay relative to control; type: functional; settings: MCF7, 72 h, read-out: Activity
[12] = molecular target: Vascular endothelial growth factor receptor 2 (Homo sapiens, UniProt P35968); assay: Inhibition of human VEGFR2 at 10 uM after 20 to 40 mins by liquid scintillation counting analysis in presence of […]; parameters: scale not given: the % may be the effect or the level left
[13] = Cytotoxicity against human RPMI8226 cells assessed as cell growth at 10 uM after 72 hrs by SRB assay relative to control; type: functional; settings: RPMI-8226, 72 h, read-out: Activity
[14] = molecular target: Platelet-derived growth factor receptor (Homo sapiens) (UniProt P09619+P16234); assay: Inhibition of PDGFR (unknown origin) at 10 uM after 20 to 40 mins by liquid scintillation counting analysis in presence of […]; type: protein-complex assay
[15] = Cytotoxicity against human RPMI8226 cells after 72 hrs by SRB assay; type: functional; settings: RPMI-8226, 72 h
SR = assay: Cytotoxicity against human SR cells after 72 hrs by SRB assay; type: functional
[16] = Cytotoxicity against human SNB19 cells after 72 hrs by SRB assay; type: functional; settings: SNB-19, 72 h
MDA-MB-435 [17] = assay: Cytotoxicity against human MDA-MB-435 cells after 72 hrs by SRB assay; type: functional; settings: MDA-MB-435, 72 h
[18] = Cytotoxicity against human UACC257 cells after 72 hrs by SRB assay; type: functional; settings: UACC-257, 72 h
[19] = Cytotoxicity against human OVCAR5 cells after 72 hrs by SRB assay; type: functional; settings: OVCAR-5, 72 h
[20] = Cytotoxicity against human NCI-ADR-RES cells after 72 hrs by SRB assay; type: functional
[21] = Cytotoxicity against human SKOV3 cells after 72 hrs by SRB assay; type: functional; settings: SK-OV-3, 72 h
ACHN = assay: Cytotoxicity against human ACHN cells after 72 hrs by SRB assay; type: functional
MCF7 [22] = assay: Cytotoxicity against human MCF7 cells after 72 hrs by SRB assay; type: functional, cell-based; settings: MCF7, 72 h
[23] = Cytotoxicity against human Hs 578T cells after 72 hrs by SRB assay; type: functional
[24] = Cytotoxicity against human BT549 cells after 72 hrs by SRB assay; type: functional; settings: BT-549, 72 h
A549 = assay: Cell cycle arrest in human A549 cells assessed as accumulation at G0/G1 phase at IC50 after 48 hrs by FACS flow cytometric analysis relative to control; type: functional
[25] = read-out: LC50 (the source's name)

Chain of Vascular endothelial growth factor receptor 2 (P35968 whole entry): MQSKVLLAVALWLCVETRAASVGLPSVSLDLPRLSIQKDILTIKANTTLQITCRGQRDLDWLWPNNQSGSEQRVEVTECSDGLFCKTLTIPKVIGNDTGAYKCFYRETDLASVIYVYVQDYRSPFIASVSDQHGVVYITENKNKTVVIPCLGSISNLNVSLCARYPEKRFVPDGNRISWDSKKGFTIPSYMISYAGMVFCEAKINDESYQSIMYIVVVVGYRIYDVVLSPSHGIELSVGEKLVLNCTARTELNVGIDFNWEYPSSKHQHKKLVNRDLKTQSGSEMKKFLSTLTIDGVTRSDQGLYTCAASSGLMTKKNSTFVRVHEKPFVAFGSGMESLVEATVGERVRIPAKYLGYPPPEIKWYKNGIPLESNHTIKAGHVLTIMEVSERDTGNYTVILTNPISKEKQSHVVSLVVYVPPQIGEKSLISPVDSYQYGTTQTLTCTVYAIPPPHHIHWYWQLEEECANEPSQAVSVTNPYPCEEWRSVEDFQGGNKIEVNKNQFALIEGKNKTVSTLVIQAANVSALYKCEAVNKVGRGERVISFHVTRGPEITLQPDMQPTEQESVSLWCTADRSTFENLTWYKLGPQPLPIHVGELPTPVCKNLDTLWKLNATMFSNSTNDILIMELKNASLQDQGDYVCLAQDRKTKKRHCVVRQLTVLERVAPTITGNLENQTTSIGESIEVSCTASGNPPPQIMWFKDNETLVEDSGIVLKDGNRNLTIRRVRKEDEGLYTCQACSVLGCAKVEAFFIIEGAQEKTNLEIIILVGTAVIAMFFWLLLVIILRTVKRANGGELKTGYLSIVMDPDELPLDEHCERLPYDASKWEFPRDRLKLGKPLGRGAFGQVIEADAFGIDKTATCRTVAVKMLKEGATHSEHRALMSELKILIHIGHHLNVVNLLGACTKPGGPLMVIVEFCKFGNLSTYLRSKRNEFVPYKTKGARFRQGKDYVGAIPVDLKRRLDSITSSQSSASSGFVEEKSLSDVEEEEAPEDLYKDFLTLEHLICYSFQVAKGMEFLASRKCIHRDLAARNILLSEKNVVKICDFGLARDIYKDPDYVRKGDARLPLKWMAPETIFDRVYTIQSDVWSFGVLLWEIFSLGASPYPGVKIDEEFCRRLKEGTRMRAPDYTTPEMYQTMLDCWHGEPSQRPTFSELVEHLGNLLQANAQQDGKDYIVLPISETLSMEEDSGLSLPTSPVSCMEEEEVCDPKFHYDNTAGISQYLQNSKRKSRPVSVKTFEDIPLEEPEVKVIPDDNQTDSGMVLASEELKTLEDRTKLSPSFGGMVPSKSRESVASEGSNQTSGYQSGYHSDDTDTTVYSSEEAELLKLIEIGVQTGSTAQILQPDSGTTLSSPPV

## Cc1ccc2nc(Nc3ncnc4c3cnn4-c3ccccc3)sc2c1
NCI-H23
  growth at 10 µM: 106%
NCI-H322M
  growth at 10 µM: 45.7%
HT-29
  growth at 10 µM: 103%
[1]
  growth at 10 µM: 99.8%
[2]
  growth at 10 µM: 101%
M14
  growth at 10 µM: 107%
MDA-MB-435 [3]
  growth at 10 µM: 91.9%
SK-MEL-2
  growth at 10 µM: 109%
SK-MEL-28
  growth at 10 µM: 95.3%
[4]
  growth at 10 µM: 112%
[5]
  growth at 10 µM: 94.7%
[6]
  growth at 10 µM: 104%
[7]
  growth at 10 µM: 107%
[8]
  growth at 10 µM: 112%
786-0
  growth at 10 µM: 103%
SN12C
  growth at 10 µM: 97.5%
[9]
  growth at 10 µM: 91.7%
[10]
  growth at 10 µM: 98.3%
MCF7 [11]
  growth at 10 µM: 97.2%
[12]
  Activity: -1%
[13]
  growth at 10 µM: 102%

## Clc1ccc(-n2ncc3c(Nc4ccc(OCc5ccccc5)cc4)ncnc32)cc1
NCI-H23
  growth at 10 µM: 92.7%
NCI-H322M
  growth at 10 µM: 75%
HT-29
  growth at 10 µM: 84.7%
[1]
  growth at 10 µM: 97.8%
[2]
  growth at 10 µM: 92.4%
M14
  growth at 10 µM: 93.6%
MDA-MB-435 [3]
  growth at 10 µM: 83.2%
SK-MEL-28
  growth at 10 µM: 90.4%
[4]
  growth at 10 µM: 102%
[5]
  growth at 10 µM: 105%
[6]
  growth at 10 µM: 80.6%
[7]
  growth at 10 µM: 98%
[8]
  growth at 10 µM: 99.7%
786-0
  growth at 10 µM: 103%
[9]
  growth at 10 µM: 83.6%
[10]
  growth at 10 µM: 86.1%
MCF7 [11]
  growth at 10 µM: 95.9%
[12]
  Activity: 0%
[13]
  growth at 10 µM: 86.4%

## c1ccc(COc2ccc(Nc3ncnc4c3cnn4-c3ccccc3)cc2)cc1
NCI-H23
  growth at 10 µM: 109%
NCI-H322M
  growth at 10 µM: 84.1%
HT-29
  growth at 10 µM: 116%
[1]
  growth at 10 µM: 107%
[2]
  growth at 10 µM: 99.6%
M14
  growth at 10 µM: 101%
MDA-MB-435 [3]
  growth at 10 µM: 90.1%
SK-MEL-2
  growth at 10 µM: 115%
SK-MEL-28
  growth at 10 µM: 96%
[4]
  growth at 10 µM: 121%
[5]
  growth at 10 µM: 93.3%
[6]
  growth at 10 µM: 91.3%
[7]
  growth at 10 µM: 113%
[8]
  growth at 10 µM: 108%
786-0
  growth at 10 µM: 100%
SN12C
  growth at 10 µM: 97.4%
[9]
  growth at 10 µM: 79.6%
[10]
  growth at 10 µM: 88.5%
MCF7 [11]
  growth at 10 µM: 100%
[12]
  Activity: -5%
[13]
  growth at 10 µM: 96.5%

## O=c1sc2cc(Nc3ncnc4c3cnn4-c3ccccc3)ccc2n1Cc1ccc(Cl)cc1
NCI-H23
  growth at 10 µM: 84.7%
NCI-H322M
  growth at 10 µM: 75.7%
HT-29
  growth at 10 µM: 106%
[1]
  growth at 10 µM: 87.2%
[2]
  growth at 10 µM: 79.2%
M14
  growth at 10 µM: 82.8%
MDA-MB-435 [3]
  growth at 10 µM: 84.2%
SK-MEL-2
  growth at 10 µM: 88%
SK-MEL-28
  growth at 10 µM: 90.1%
[4]
  growth at 10 µM: 92.6%
[5]
  growth at 10 µM: 58.3%
[6]
  growth at 10 µM: 87%
[7]
  growth at 10 µM: 87.9%
[8]
  growth at 10 µM: 101%
786-0
  growth at 10 µM: 93.7%
SN12C
  growth at 10 µM: 75%
[9]
  growth at 10 µM: 50.7%
[10]
  growth at 10 µM: 55.6%
MCF7 [11]
  growth at 10 µM: 85.3%
[12]
  Activity: -7%
[14]
  inhibition: inactive
[13]
  growth at 10 µM: 63.5%

## O=C(NC1CCCCC1)c1ccc(Nc2ncnc3c2cnn3-c2ccccc2)cc1
NCI-H23
  growth at 10 µM: 72%
NCI-H322M
  growth at 10 µM: 64%
HT-29
  growth at 10 µM: 70.2%
[1]
  growth at 10 µM: 73.4%
[2]
  growth at 10 µM: 43.7%
[15]
  GI50: > 100 µM
  TGI: > 100 µM
[15]; [25]
  CC50: > 100 µM
M14
  growth at 10 µM: 69.1%
MDA-MB-435 [3]
  growth at 10 µM: 81.2%
SK-MEL-2
  growth at 10 µM: 79.1%
SK-MEL-28
  growth at 10 µM: 62.2%
[4]
  growth at 10 µM: 56.5%
[5]
  growth at 10 µM: 63.9%
[6]
  growth at 10 µM: 30.3%
[7]
  growth at 10 µM: 21.6%
[8]
  growth at 10 µM: 54%
786-0
  growth at 10 µM: 72.1%
SN12C
  growth at 10 µM: 19%
[9]
  growth at 10 µM: 57.7%
[10]
  growth at 10 µM: 53.3%
MCF7 [11]
  growth at 10 µM: 82.8%
SR
  GI50: 11.6 µM
  TGI: 49.1 µM
SR; [25]
  CC50: > 100 µM
[16]
  GI50: 3.82 µM
  TGI: 18.9 µM
[16]; [25]
  CC50: > 100 µM
MDA-MB-435 [17]
  GI50: 67.8 µM
  TGI: > 100 µM
MDA-MB-435 [17]; [25]
  CC50: > 100 µM
[18]
  GI50: 6.42 µM
  TGI: > 100 µM
[18]; [25]
  CC50: > 100 µM
[19]
  GI50: 15.2 µM
  TGI: 95.2 µM
[19]; [25]
  CC50: > 100 µM
[20]
  GI50: 7.06 µM
  TGI: > 100 µM
[20]; [25]
  CC50: > 100 µM
[21]
  GI50: 2.95 µM
  TGI: 8.7 µM
[21]; [25]
  CC50: 51.1 µM
ACHN
  GI50: 3.32 µM
  TGI: 11 µM
ACHN; [25]
  CC50: 37 µM
MCF7 [22]
  GI50: 74.1 µM
  LC50: > 100 µM
  TGI: > 100 µM
[23]
  GI50: 3.37 µM
  TGI: 34.2 µM
[23]; [25]
  CC50: > 100 µM
[24]
  GI50: 5.69 µM
  TGI: 26.4 µM
[24]; [25]
  CC50: 91.9 µM
[12]
  Activity: 7%
A549
  Activity: 11.9%
[13]
  growth at 10 µM: 89.5%
